Columns and labels:
Format in all cases: in vivo
[1] = test system: larvae of the southern green stink bug (Nezara viridula); assay: Nezara viridula spray test; conditions: 96 h, after 4 days, barley plants
Protocol: Nezara viridula—Spray Test
Solvent: 78.0 parts by weight of acetone • • 1.5 parts by weight of dimethylformamide
(§1) Emulsifier: alkylarylpolyglycol ether
(§2) To produce a suitable preparation of active compound, 1 part by weight of active compound is mixed with the stated amount of solvent, and the concentrate is diluted with water, containing an emulsifier concentration of 1000 ppm, to the desired concentration. Further test concentrations are prepared by dilution with emulsifier containing water.
Barley plants (Hordeum vulgare) infested with larvae of the southern green stink bug (Nezara viridula) are sprayed with a test solution containing the desired concentration of the active ingredient.
After 4 days mortality in % is determined. 100% means all the stink bugs have been killed; 0% means none of the stink bugs have been killed.

[2] = test system: green peach aphid (Myzus persicae); assay: Myzus persicae oral test; conditions: 120 h
Protocol: Solvent: 100 parts by weight acetone
To produce a suitable preparation of active compound, 1 part by weight of active compound is mixed with the stated amount of solvent, and the concentrate is diluted with water to the desired concentration. 50 μL compound solution is filled in microtiter plates and 150 μL IPL41 insect medium (33%+15% sugar) is added to obtain a total volume of 200 μL per well. Afterwards the plates are sealed with parafilm through which a mixed population of the green peach aphid (Myzus persicae) can suck on the compound preparation.
(§3) After 5 days mortality in % is determined. 100% means all aphids have been killed and 0% means none of the aphids have been killed.

[3] = test system: adult unfed cat fleas (Ctenocephalides felis); assay: Ctenocephalides felis oral test; conditions: 48 h
Protocol: Ctenocephalides felis—Oral Test
(§4) Solvent: dimethyl sulfoxide
To produce a suitable preparation of active compound, 10 mg of active compound are dissolved in 0.5 ml solvent, and the concentrate is diluted with cattle blood to the desired concentration.
Approximately 20 adult unfed cat fleas (Ctenocephalides felis) are placed in flea chambers. The blood chamber, sealed with parafilm on the bottom, are filled with cattle blood supplied with compound solution and placed on the gauze covered top of the flea chamber, so that the fleas are able to suck the blood. The blood chamber is heated to 37° C. whereas the flea chamber is kept at room temperature.
After 2 days mortality in % is determined. 100% means all the fleas have been killed; 0% means none of the fleas have been killed.

[4] = test system: Aedes aegypti strain MONHEIM; assay: Aedes aegypti test (AEDSAE surface treatment & contact assay); conditions: 24 hours after contact, read-out: efficacy (mortality); for mortality at 4 mg/m2: surface concentration 4 mg/m^2, 30 minutes exposure
Protocol: Aedes Aegypti Test (AEDSAE Surface Treatment & Contact Assay)
(§5) Solvent: Aceton+2000 ppm rapeseed oil methyl ester (RME)
(§6) In order to produce a sufficient, active ingredient containing solution it is necessary to solve the test compound in the solvent-mix (acetone at 2 mg/ml/RME 2000 ppm). This solution is pipetted onto a glazed tile and after evaporation of the acetone, adult mosquitoes of the species Aedes aegypti strain MONHEIM are placed onto the dried surface. The exposure time is 30 minutes. Mortality in percent (%) is determined 24 hours after contact of the insects to the treated surface. 100% mortality means that all tested insects are dead, whereas 0% means that no insect died.

[5] = test system: adult engorged female ticks (Rhipicephalus microplus); assay: Rhipicephalus (Boophilus) microplus injection test; conditions: 168 h, 4 μg/animal, after 7 days, read-out: efficacy (infertile eggs)
Protocol: Rhipicephalus (Boophilus) microplus—Injection Test
as §4
To produce a suitable preparation of active compound, 10 mg of active compound are dissolved in 0.5 mL solvent, and the concentrate is diluted with solvent to the desired concentration.
Five adult engorged female ticks (Rhipicephalus microplus) are injected with 1 μL compound solution into the abdomen. The ticks are transferred into replica plates and incubated in a climate chamber.
After 7 days egg deposition of fertile eggs is monitored. Eggs where fertility is not visible are stored in a climate chamber till hatching after about 42 days. An efficacy of 100% means all eggs are infertile; 0% means all eggs are fertile.

[6] = test system: Anopheles funestus strain FUMOZ-R; assay: Anopheles funestus test (ANPHFU surface treatment & contact assay); conditions: surface concentration 20 mg/m^2, 30 minutes exposure, 24 hours after contact, read-out: efficacy (mortality)
Protocol: Anopheles funestus Test (ANPHFU Surface Treatment & Contact Assay)
as §5
as §6, with “Anopheles funestus” for “Aedes aegypti”, “FUMOZ-R (Hunt et al., Med. Vet. Entomol. 2005 September; 19(3): 271-275)” for “MONHEIM”

[7] = test system: adult brown dog ticks (Rhipicephalus sanguineus); assay: Rhipicephalus sanguineus in-vitro contact test with adult brown dog ticks; conditions: 5 μg/cm^2 (=500 g/ha), after 48 hours, read-out: efficacy (ticks dead or moribund)
Protocol: Rhipicephalus sanguineus—In-Vitro Contact Tests with Adult Brown Dog Ticks
(§7) 9 mg compound is solved in 1 mL acetone and diluted with acetone to the desired concentration. 250 μL of the test solution is filled in 25 mL glass test tubes and homogeneously distributed on the inner walls by rotation and tilting on a shaking device (2 h at 30 rpm). With a compound concentration of 900 ppm, an inner surface of 44.7 cm^2 and a homogeneous distribution, a dose of 5 μg/cm^2 is achieved.
After the solvent has evaporated, each test tube is filled with 5-10 adult brown dog ticks (Rhipicephalus sanguineus), closed with a perforated lid and incubated in a lying position at room temperature and relative humidity. After 48 hours efficacy is determined. The ticks are patted on the ground of the tubes and are incubated on a heating plate at 45-50° C. for at most 5 minutes. Immotile or uncoordinated moving ticks, which are not able to escape the heat by climbing upwards, are marked as dead or moribund.
An efficacy of 100% means all ticks are dead or moribund; 0% means no ticks are dead or moribund.

[8] = test system: Rhipicephalus microplus larvae (strain Parkhurst, resistant against synthetic pyrethroids); assay: Rhipicephalus (Boophilus) microplus in-vitro contact test, larval cattle tick; conditions: 5 μg/cm^2 (=500 g/ha), after 48 hours, read-out: efficacy (larvae dead or moribund)
Protocol: Rhipicephalus (Boophilus) Microplus—In-Vitro Contact Tests Larval Cattle Tick (Strain Parkhurst, Resistant Against Synthetic Pyrethroids)
as §7
After the solvent has evaporated, each test tube is filled with 20-50 cattle tick larvae (Rhipicephalus microplus), closed with a perforated lid and incubated in a horizontal position at 85% relative humidity and 27° C. in an incubator. After 48 hours efficacy is determined. The larvae are patted on the ground of the tubes and negative geotactic behaviour is recorded.
An efficacy of 100% means all larvae are dead or moribund; 0% means no larvae are dead or moribund.

[9] = test system: green peach aphid (Myzus persicae); assay: Myzus persicae spray test; conditions: foliar, 120 h, after 5 days, Chinese cabbage leaf disks
Protocol: Myzus persicae—spray test
Solvent: 78.0 parts by weight acetone • 1.5 parts by weight dimethylformamide
as §1
as §2, with “solvents” for “solvent,”, “and” for “and the concentrate”
Chinese cabbage (Brassica pekinensis) leaf disks infected with all instars of the green peach aphid (Myzus persicae), are sprayed with a preparation of the active ingredient of the desired concentration.
as §3

[10] = test system: adult cat fleas (Ctenocephalides felis); assay: Ctenocephalides felis in-vitro contact test, adult cat flea; conditions: after 48 hours, read-out: efficacy (fleas dead or moribund)
Protocol: as §7, with “Ctenocephalides felis—In-Vitro Contact Tests Adult Cat Flea 9 mg” for “9 mg”
After the solvent has evaporated, each test tube is filled with 5-10 adult cat fleas (Ctenocephalidesfelis), closed with a perforated lid and incubated in a lying position at room temperature and relative humidity.
After 48 hours efficacy is determined. The fleas are patted on the ground of the tubes and are incubated on a heating plate at 45-50° C. for at most 5 minutes. Immotile or uncoordinated moving fleas, which are not able to escape the heat by climbing upwards, are marked as dead or moribund.
An efficacy of 100% means all fleas are dead or moribund; 0% means no fleas are dead or moribund.

[11] = test system: larvae of the banded cucumber beetle (Diabrotica balteata); assay: Diabrotica balteata spray test; conditions: 168 h, 100 g/ha (=32 μg/well), after 7 days, wheat seeds, read-out: efficacy (seedlings grown like untreated, uninfected control)
Protocol: Diabrotica balteata—spray test
Solvent: 78.0 parts by weight of acetone
1.5 parts by weight of dimethylformamide
as §1, §2
Soaked wheat seeds (Triticum aestivum) are placed in a multiple well plate filled with agar and some water and are incubated for 1 day to germinate (5 seeds per well). The germinated wheat seeds are sprayed with a test solution containing the desired concentration of the active ingredient. Afterwards each unit is infected with 10-20 larvae of the banded cucumber beetle (Diabrotica balteata).
After 7 days efficacy in % is determined. 100% means all the seedlings have grown up like in the untreated, uninfected control; 0% means none of the seedlings have grown.

Compound	mortality at 100 g/ha [1] [%]	mortality at 4 ppm [2] [%]	mortality at 100 ppm [3] [%]	mortality at 4 mg/m2 [4] [%]	mortality at 20 mg/m2 ([4]; surface concentration 20 mg/m^2, 30 minutes exposure) [%]	pest or weed control at 0.004 mg [5] [%]	mortality at 20 mg/m2 [6] [%]	pest or weed control at 5 µg/cm2, 500 g/ha [7] [%]	pest or weed control at 5 µg/cm2 [8] [%]	mortality at 100 g/ha [9] [%]	pest or weed control at 1 µg/cm2, 100 g/ha ([10]; 1 μg/cm^2 (=100 g/ha)) [%]	pest or weed control at 5 µg/cm2, 500 g/ha ([10]; 5 μg/cm^2 (=500 g/ha)) [%]	pest or weed control at 32 µg/disc, 100 g/ha [11] [%]
CC(NC(=O)c1cncc(C(F)(F)F)c1)c1nc(Cl)nn1-c1ncccn1 (stereo not shown) [Example I-007]	90	90	100	80 to 100	80 to 100	100	80 to 100	100	100	90			
CC(NC(=O)c1cc(Cl)nc(C(F)(F)F)c1)c1nc(Cl)nn1-c1ncccn1 (stereo not shown) [Example I-008]	100		100	80 to 100		100		100	100		90	90	80

Reference: patent publication US20220386611A1, “NOVEL HETEROARYL-TRIAZOLE COMPOUNDS AS PESTICIDES” (Bayer Aktiengesellschaft, priority 2019, published 2022)
